# Molecular target: T1, human plasma protein factor Xa (Homo sapiens, UniProt P00742)
# T1 construct: measure proteolytic activity of the enzyme (factor Xa); purchased Haematologic Technologies (Essex Junction, Vt.); host or cells: human plasma
# Experiment: Factor Xa IC50 determination (cleavage of chromogenic substrate S-2765)
# Format: biochemical
# Details: fXa 1 nM, S-2765 100 μM, Tris buffered saline pH 7.4, room temperature
# Text: This example illustrates methods for evaluating the compounds of the invention, along with results obtained for such assays. The in vitro and in vivo Factor Xa isoform activities of the inventive compounds can be determined by various procedures known in the art, such as a test for their ability to inhibit the activity of the Factor Xa isoform. […] The IC50 value is the concentration (in nM) of the compound required to provide 50% inhibition of Factor Xa isoform.
# An in vitro assay for detecting and measuring inhibition activity against Factor Xa is as follows:
# • The substrate S-2765 (Z-D-Arg-Gly-Arg-pNA.HCl) was obtained from Diapharma (West Chester, Ohio). Enzyme: • The human plasma protein factor Xa was purchased from Haematologic Technologies (Essex Junction, Vt.). Methods
# All assays, which are performed in 96-well microtiter plates, measure proteolytic activity of the enzyme (factor Xa) by following cleavage of paranitroanilide substrate. The assay buffer used for proteolytic assays was Tris buffered saline (20 mM Tris, 150 mM NaCl, 5 mM CaCl2, 0.1% Bovine serum albumin (BSA), 5% Dimethly Sulfoxide (DMSO) pH 7.4). In a 96-well microtiter plate, inhibitor was serially diluted to give a range of concentrations from 0.01 nM to 10 μM (final). Duplicate sets of wells were assayed and control wells without inhibitor were included. Enzyme was added to each well,(fXa concentration=1nM), the plate was shaken for 5 seconds and then incubated for 5 minutes at room temperature. S2765 was added (100 μM final) and the plate was shaken for 5 seconds (final liquid volume in each well was 200 μl). The degree of substrate hydrolysis was measured at 405 nm on a Thermomax plate reader (Molecular Devices, Sunnyvale, Calif.) for 2 minutes. The initial velocities (mOD/min), for each range of inhibitor concentrations, were fitted to a four parameter equation using Softmax data analysis software. The parameter C, derived from the resulting curve-fit, corresponded to the concentration for half maximal inhibition (IC50).
# T1 sequence (P00742 235-488 limits assumed): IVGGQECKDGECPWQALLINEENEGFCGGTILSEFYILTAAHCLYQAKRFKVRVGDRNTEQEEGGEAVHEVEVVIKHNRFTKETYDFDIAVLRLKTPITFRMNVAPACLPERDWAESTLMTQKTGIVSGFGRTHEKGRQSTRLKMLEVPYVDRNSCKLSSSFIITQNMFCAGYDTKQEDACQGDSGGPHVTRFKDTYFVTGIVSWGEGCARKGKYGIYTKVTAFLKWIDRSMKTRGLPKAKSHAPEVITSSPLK
# T1 sequence (P00742 41-179 partner limits assumed): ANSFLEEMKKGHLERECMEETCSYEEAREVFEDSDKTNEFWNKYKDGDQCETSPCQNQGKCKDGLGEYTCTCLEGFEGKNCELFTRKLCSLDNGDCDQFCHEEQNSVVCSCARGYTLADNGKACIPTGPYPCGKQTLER
row,SMILES,IC50
1,"CN1CCN=C1c1ccc(NC(=O)C(NC(=O)Nc2ccc(Cl)cc2)c2cccnc2)cc1 (stereo not shown) [Example 9, N-[4-(1-methyl-4,5-dihydro-1H-imidazol-2-yl)phenyl]-2-pyridin-3-yl-2-(4-chlorophenylaminocarbonylamino)-acetamide]",100 to 500 nM
2,N=C(c1ccc(NC(=O)C(NC(=O)Nc2ccc(Cl)cc2)c2cccs2)cc1)N1CCCC1 (stereo not shown) [Example 21],≤ 100 nM
3,"CN1CCN=C1c1ccc(NC(=O)C(Cc2ccccc2)NC(=O)Nc2ccc(Cl)cc2)cc1 (stereo not shown) [Example 5, N-[4-(1-methyl-4,5-dihydro-1H-imidazol-2-yl)phenyl]-2-benzyl-2-(4-chlorophenylaminocarbonylamino)-acetamide]",≤ 100 nM
4,"COc1ccccc1C(NC(=O)Nc1ccc(Cl)cc1)C(=O)N1CCC(N2CCN(C)CC2=O)CC1 (stereo not shown) [Example 151, 4-(4-methyl-2-piperazinon-1-yl)piperidin-1-yl-2-(2-methoxyphenyl)-2-(4-chlorophenylaminocarbonylamino)-acetamide]",≥ 500 nM
5,"O=C(Nc1ccc(Cl)cc1)NC(C(=O)Nc1ccc(-c2cc[n+]([O-])cc2)cc1)c1ccccc1Br (stereo not shown) [Example 78, N-[4-(N-oxo-pyridin-4-yl)phenyl]-2-(2-bromophenyl)-2-(4-chlorophenylaminocarbonylamino)-acetamide]",100 to 500 nM
6,"CN1CCN=C1c1ccc(NC(=O)C(CC(=O)Nc2ccccc2)NC(=O)Nc2ccc(Cl)cc2)cc1 (stereo not shown) [Example 73, N-[4-(1-methyl-4,5-dihydro-1H-imidazol-2-yl)phenyl]-2-(phenylamino-carbonylmethyl)-2-(4-chlorophenylaminocarbonylamino)-acetamide]",100 to 500 nM
7,"O=C(Nc1ccc(Cl)cc1)NC(C(=O)Nc1ccc(-c2ccncc2)cc1)c1ccccc1F (stereo not shown) [Example 49, N-[4-(pyridin-4-yl)phenyl]-2-(2-fluorophenyl)-2-(4-chlorophenylaminocarbonylamino)-acetamide]",100 to 500 nM
8,"CN1CCN=C1c1ccc(N2C(=O)C(NC(=O)Nc3ccc(Cl)cc3)Cc3ccccc32)cc1 (stereo not shown) [Example 136, 1-[4-(1-methyl-4,5-dihyrdo-1H-imidazol-2-yl)phenyl]-3-(4-chlorophenylaminocarbonylamino)-3,4-dihydroquinolin-2-one]",≤ 100 nM
9,"CN1CCN=C1c1ccc(NC(=O)C(NC(=O)Nc2ccc(Cl)cc2)c2ccc(Br)cc2)cc1 (stereo not shown) [Example 119, N-[4-(1-methyl-4,5-dihydro-1H-imidazol-2-yl)phenyl]-2-(4-bromophenyl)-2-(4-chlorophenylaminocarbonylamino)-acetamide]",≤ 100 nM
10,"CN1CCN=C1c1ccc(NC(=O)C(CC(=O)N2CCOCC2)NC(=O)Nc2ccc(Cl)cc2)cc1 (stereo not shown) [Example 65, N-[4-(1-methyl-4,5-dihydro-1H-imidazol-2-yl)phenyl]-2-(morpholin-4-ylcarbonylmethyl)-2-(4-chlorophenylaminocarbonylamino)-acetamide]",≥ 500 nM
11,"CN1CCN=C1c1ccc(NC(=O)C(CC(=O)N2CCCC2)NC(=O)Nc2ccc(Cl)cc2)cc1 (stereo not shown) [Example 66, N-[4-(1-methyl-4,5-dihydro-1H-imidazol-2-yl)phenyl]-2-(pyrrolidin-1-yl-carbonylmethyl)-2-(4-chlorophenylaminocarbonylamino)-acetamide]",≥ 500 nM
12,"O=C(Nc1ccc(Cl)cc1)N[C@H](C(=O)Nc1ccc(-n2ccccc2=O)cc1)c1ccccc1 [Example 137, (2S) N-[4-(2-pyridon-1-yl)phenyl]-2-phenyl-2-(4-chlorophenylaminocarbonylamino)-acetamide]",≤ 100 nM
13,"Cc1ccccc1C(NC(=O)Nc1ccc(Cl)cc1)C(=O)NCC1CCN(c2ccncc2)CC1 (stereo not shown) [Example 93, N-[1-(pyridin-4-yl)piperidin-4-yl]methyl-2-(2-methylphenyl)-2-(4-chlorophenylaminocarbonylamino)-acetamide]",≤ 100 nM
14,"CC(C)N1CCC(NC(=O)C(NC(=O)Nc2ccc(Cl)cc2)c2ccccc2Cl)CC1 (stereo not shown) [Example 103, N-(1-isopropylpiperidin-4-yl)-2-(2-chlorophenyl)-2-(4-chlorophenylamino-carbonylamino)-acetamide]",≥ 500 nM
15,N=C(c1ccc(N2C(=O)C(NC(=O)Nc3ccc(Cl)cc3)Cc3ccccc32)cc1)N1CCCC1 (stereo not shown) [Example 135],≥ 500 nM
16,"CN1CCN=C1c1ccc(NC(=O)C(CC(=O)NCc2ccccc2)NC(=O)Nc2ccc(Cl)cc2)cc1 (stereo not shown) [Example 69, N-[4-(1-methyl-4,5-dihydro-1H-imidazol-2-yl)phenyl]-2-(benzylamino-carbonylmethyl)-2-(4-chlorophenylaminocarbonylamino)-acetamide]",≥ 500 nM

row,SMILES,IC50
1,"COc1ccccc1C(NC(=O)Nc1ccc(Cl)cc1)C(=O)NCC1CCN(c2ccncc2)CC1 (stereo not shown) [Example 108, N-[1-(pyridin-4-yl)piperidin-4-yl]methyl-2-(2-methoxyphenyl)-2-(4-chlorophenylaminocarbonylamino)-acetamide]",≤ 100 nM
2,"CN1CCN=C1c1ccc(NC(=O)C(CC(=O)N2CCCCC2)NC(=O)Nc2ccc(Cl)cc2)cc1 (stereo not shown) [Example 64, N-[4-(1-methyl-4,5-dihydro-1H-imidazol-2-yl)phenyl]-2-(piperidin-1-ylcarbonylmethyl)-2-(4-chlorophenylaminocarbonylamino)-acetamide]",≥ 500 nM
3,"C=CCN(C)C(=N)c1ccc(NC(=O)C(NC(=O)Nc2ccc(Cl)cc2)c2ccccc2)c(F)c1 (stereo not shown) [Example 35, N-[4-(N-methyl-N-allylaminoimino)-2-fluorophenyl]-2-phenyl-2-(4-chlorophenylaminocarbonylamino)-acetamide]",≤ 100 nM
4,"COc1ccccc1C(NC(=O)Nc1ccc(Cl)cc1)C(=O)N1CCN(C2CCN(C)CC2)CC1 (stereo not shown) [Example 109, N-[4-(1-methylpiperidin-4-yl)piperazin-1-yl]-2-(2-methoxyphenyl)-2-(4-chlorophenylaminocarbonylamino)-acetamide]",≤ 100 nM
5,"O=C(Nc1ccc(Cl)cc1)NC(C(=O)Nc1ccc(-c2cccc[n+]2[O-])cc1)c1ccccc1Cl (stereo not shown) [Example 99, N-[4-(N-oxo-pyridin-2-yl)phenyl]-2-(2-chlorophenyl)-2-(4-chlorophenylaminocarbonylamino)-acetamide]",≤ 100 nM
6,"CN(C)Cc1nccn1-c1ccc(NC(=O)C(NC(=O)Nc2ccc(Cl)cc2)c2ccccc2F)c(F)c1 (stereo not shown) [Example 58, N-[4-(2-dimethylaminomethyl-imidazol-1-yl)-2-fluorophenyl]-2-(2-fluorophenyl)-2-(4-chlorophenylaminocarbonylamino)-acetamide]",≤ 100 nM
7,Cc1ccccc1C(NC(=O)Nc1ccc(Cl)cc1)C(=O)N1CCN(C2CCN(C)CC2)CC1 (stereo not shown) [Example 91],≤ 100 nM
8,"Cc1ccccc1C(NC(=O)Nc1ccc(Cl)cc1)C(=O)Nc1ccc(N(C)c2ccncc2)cc1 (stereo not shown) [Example 96, N-[4-(N-methyl-N-pyridin-4-yl-amino)phenyl]-2-(2-methylphenyl)-2-(4-chlorophenylaminocarbonylamino)-acetamide]",≤ 100 nM
9,"CN(C)C(=N)c1ccc(NC(=O)C(NC(=O)Nc2ccc(Cl)cc2)c2ccccc2I)cc1 (stereo not shown) [Example 116, N-[4-(dimethylaminoimino)phenyl]-2-(2-iodophenyl)-2-(4-chlorophenylaminocarbonylamino)-acetamide]",≤ 100 nM
10,"O=C(Nc1ccc(Cl)cc1)NC(C(=O)Nc1ccc(-c2cccc[n+]2[O-])cc1)c1ccccc1OC(F)(F)F (stereo not shown) [Example 121, N-[4-(N-oxo-pyridin-2-yl)phenyl]-2-(2-trifluoromethoxyphenyl)-2-(4-chlorophenylaminocarbonylamino)-acetamide]",≤ 100 nM
11,"CCN(C)C(=N)c1ccc(NC(=O)C(NC(=O)Nc2ccc(Cl)cc2)c2ccccc2)c(F)c1 (stereo not shown) [Example 34, N-[4-(N-methyl-N-ethylaminoimino)-2-fluorophenyl]-2-phenyl-2-(4-chlorophenylaminocarbonylamino)-acetamide]",≤ 100 nM
12,"O=C(Nc1ccc(Cl)cc1)NC(C(=O)Nc1ccc(-c2cccc[n+]2[O-])cc1)c1ccccc1F (stereo not shown) [Example 51, N-[4-(N-oxo-pyridin-2-yl)phenyl]-2-(2-fluorophenyl)-2-(4-chlorophenylaminocarbonylamino)-acetamide]",≤ 100 nM
13,"COc1ccccc1C(NC(=O)Nc1ccc(Cl)cc1)C(=O)Nc1ccc(-c2cccc[n+]2[O-])cc1 (stereo not shown) [Example 107, N-[4-(N-oxo-pyridin-2-yl)phenyl]-2-(2-methoxyphenyl)-2-(4-chlorophenylaminocarbonylamino)-acetamide]",≤ 100 nM
14,"CCN(C)C(=N)c1ccc(NC(=O)C(NC(=O)Nc2ccc(Cl)cc2)c2cccs2)cc1 (stereo not shown) [Example 20, N-[4-(N-methyl-N-ethylaminoimino)phenyl]-2-(2-thienyl)-2-(4-chlorophenylaminocarbonylamino)-acetamide]",≤ 100 nM
15,"N=C(c1ccc(NC(=O)C(NC(=O)Nc2ccc(Cl)cc2)c2ccccc2)c(F)c1)N1CCCC1 (stereo not shown) [Example 38, N-[4-(pyrrolidin-1-ylimino)-2-fluorophenyl]-2-phenyl-2-(4-chlorophenylaminocarbonylamino)-acetamide]",≤ 100 nM

# Reference: patent US7678913B2, “Ureas as factor Xa inhibitors” (Portola Pharmaceuticals, Inc., priority 2004, dated 2010)
